According to publication PMC11855827, “High-Throughput Screening of Five Compound Libraries for Anthelmintic Activity and Toxicity Leads to the Discovery of Two Flavonoid Compounds” (International Journal of Molecular Sciences, 2025):
Several values for one entry are separate records, joined by “and”; a condition that tells them apart may be missing. Identical values can stand only once. Counter-ions that a name gives are not always drawn.

System: C. elegans
Details: Table S2, C. elegans SS assay, 110 μM, averages of 4 data points

Row | SMILES | Percentage of motility inhibition 0 h | Percentage of motility inhibition 24 h
1 | CC(C)=C[C@@H]1CO[C@]23C[C@@]4(CO2)[C@@H](CC[C@@H]2[C@@]5(C)CC[C@H](O[C@H]6OC[C@H](O)[C@H](O[C@H]7O[C@H](COS(=O)(=O)O)[C@@H](O)[C@H](O)[C@H]7O)[C@H]6O[C@@H]6O[C@@H](CO)[C@H](O)[C@H]6O)C(C)(C)[C@@H]5CC[C@]24C)[C@H]3[C@@]1(C)O [Bacopaside I] | 19% | 0%
2 | CC(C)=C[C@H]1C[C@](C)(O)[C@@H]2[C@H]3CC[C@@H]4[C@@]5(C)CC[C@H](O[C@@H]6OC[C@H](O)[C@H](O[C@@H]7O[C@H](CO)[C@@H](O)[C@H](O)[C@H]7O)[C@H]6O[C@@H]6O[C@@H](CO)[C@H](O)[C@H]6O)C(C)(C)[C@@H]5CC[C@@]4(C)[C@@]34CO[C@@]2(C4)O1 [Bacopaside X] | 9% | 35%
3 | O=c1c(O[C@@H]2O[C@H](CO)[C@@H](O)[C@H](O)[C@H]2O[C@@H]2O[C@H](CO)[C@@H](O)[C@H](O)[C@H]2O)c(-c2ccc(O)c(O)c2)oc2cc(O)cc(O)c12 [Baimaside] | 13% | 0%
4 | COc1ccc(-c2oc3c(CC=C(C)C)c(O)cc(O)c3c(=O)c2O[C@@H]2O[C@@H](C)[C@H](O)[C@@H](O)[C@H]2O)cc1 [Baohuoside I] | 0% | 0%
5 | CC(C)=CCc1cc(C(=O)/C=C/c2ccc(O)cc2)c(O)cc1O [Bavachalcone] | 39% | 18%
6 | CC1(C)CC[C@]2(C(=O)O)CC[C@]3(C)C(=CC[C@@H]4[C@@]5(C)C[C@H](O)[C@H](O)[C@@](C)(CO)[C@@H]5CC[C@]43C)[C@@H]2C1 [Bayogenin] | 2% | 5%
7 | COC[C@]12CN(C)C3[C@@H]4[C@H](OC)[C@H]1[C@@]3([C@@H](OC)C[C@H]2O)[C@]1(O)C[C@@]2(O)[C@H](OC(=O)c3ccccc3)[C@@H]1[C@]4(OC(C)=O)[C@@H](O)[C@@H]2OC [Beiwutine] | – | 13% and 10%
8 | CCN1C[C@]2(COC)[C@H](O)C[C@H](OC)[C@@]34[C@@H]5C[C@@]6(O)[C@H](OC(=O)c7ccccc7)[C@@H]5[C@@](O)([C@@H]([C@H](OC)[C@H]23)[C@@H]14)[C@@H](O)[C@@H]6OC [Benzoylaconine] | 2% | 0%
9 | COC[C@@]12CC[C@H](OC)[C@]34C([C@H]([C@H](OC)[C@H]13)[C@]1(O)[C@H]3[C@@H](OC(=O)c5ccccc5)[C@](O)(C[C@H]34)[C@@H](OC)[C@@H]1O)N(C)C2 [Benzoylhypaconine] | 5% | 0%
10 | COC[C@]12CN(C)C3[C@@H]4[C@H](OC)[C@H]1[C@@]3([C@@H](OC)C[C@H]2O)[C@@H]1C[C@@]2(O)[C@H](OC(=O)c3ccccc3)[C@@H]1[C@]4(O)[C@@H](O)[C@@H]2OC [Benzoylmesaconine] | 1% | 0%
11 | C[N+](C)(CCOc1ccccc1)Cc1ccccc1.O=C([O-])c1cc2ccccc2cc1O [Bephenium (hydroxynaphthoate)] | 12% | 5%
12 | COc1cc2c3cc1Oc1c(OC)c(OC)cc4c1[C@@H](Cc1ccc(O)c(c1)Oc1ccc(cc1)C[C@@H]3N(C)CC2)N(C)CC4 [Berbamine (dihydrochloride)] | 33% and 53% | 11% and 15%
13 | COc1ccc2cc3[n+](cc2c1O)CCc1cc2c(cc1-3)OCO2.[Cl-] [Berberrubine (chloride)] | 0% | 0%
14 | Cl.N[C@@H]1CCCCN(c2c(F)cc3c(=O)c(C(=O)O)cn(C4CC4)c3c2Cl)C1 [Besifloxacin (Hydrochloride)] | 6% | 32%
15 | C=C(C)[C@@H]1CC[C@]2(C=O)CC[C@]3(C)[C@H](CC[C@@H]4[C@@]5(C)CC[C@H](O)C(C)(C)[C@@H]5CC[C@]43C)[C@@H]12 [Betulinaldehyde] | 7% and 0% | 3% and 9%
16 | C=C(C)[C@@H]1CC[C@]2(C(=O)O)CC[C@]3(C)[C@H](CC[C@@H]4[C@@]5(C)CCC(=O)C(C)(C)[C@@H]5CC[C@]43C)[C@@H]12 [Betulonic acid] | 24% | 26%
17 | C=CC1=C(C)/C(=C/C2=NC(=C\c3[nH]c(/C=C4\NC(=O)C(C)=C4C=C)c(C)c3CCC(=O)O)/C(CCC(=O)O)=C2C)NC1=O [Biliverdin (hydrochloride)] | 0% | 1%
18 | COc1ccc(-c2coc3cc(O)cc(O)c3c2=O)cc1 [Biochanin A] | 7% | 0%

Row | SMILES | Percentage of motility inhibition 0 h | Percentage of motility inhibition 24 h
19 | CC(=O)OC[C@@]12CC[C@@H](C)[C@](C)(CCC3=CC(=O)OC3)[C@H]1C[C@H](O)C=C2CO [Blinin] | 0% | 7%
20 | COc1cc(O)c2c(c1)O[C@H](c1cc(O)cc(O)c1)CC2=O [Blumeatin] | 21% | 11%
21 | C=C1C(=O)O[C@H]2C[C@@H](C)[C@@H]3[C@@H](OC(C)=O)C[C@H](O)[C@@]3(C)[C@@H](OC(C)=O)[C@H]12 [Britannin] | 14% | 5%
22 | CC1=CC(=O)[C@@H](O)[C@]2(C)[C@H]3[C@@H](O)[C@H](O)[C@@]4(C)OC[C@@]35[C@@H](C[C@@H]12)OC(=O)[C@H](O)[C@]54O [Bruceine D] | 25% | 54%
23 | C[C@H]1O[C@@H](O[C@H]2CC[C@@]3(C)[C@@H](CC[C@]4(C)[C@@H]3C=CC3=C5CC(C)(C)CC[C@]5(CO)[C@@H](O)C[C@]34C)[C@]2(C)CO)[C@H](O[C@@H]2O[C@H](CO)[C@@H](O)[C@H](O)[C@H]2O)[C@@H](O[C@@H]2O[C@H](CO)[C@@H](O)[C@H](O)[C@H]2O)[C@H]1O [Buddlejasaponin IVb] | 0% | 4%
24 | C=C1C2CCC3(C4C[C@H]5C6(CCC[C@@]5(C)CN(CC)C46)[C@H]3[C@H]2O)[C@@H]1O [Bullatine A] | 0% | 3%
25 | CN(Cc1ccc(C(C)(C)C)cc1)Cc1cccc2ccccc12.Cl [Butenafine (Hydrochloride)] | 43% | 0%
26 | Clc1ccc(CCC(Cn2ccnc2)Sc2c(Cl)cccc2Cl)cc1.O=[N+]([O-])O (centres unmarked) [Butoconazole (nitrate)] | 45% | 46%
27 | CCCCC1OC(=O)c2ccccc21 (centres unmarked) [Butylphthalide] | 0% | 18%
28 | Cc1ccc(Nc2cc(-c3cccc(N4C(=O)c5ccccc5C4=O)c3)ncn2)cc1NS(C)(=O)=O [CDK9‐IN‐1] | 54% | 3%
29 | C[C@@]12CCc3occc3[C@H]1CC[C@@]13C[C@@H](CC[C@H]12)[C@@](O)(CO)C3 [Cafestol] | 0% | 28%
30 | CC1(C)CC[C@]2(C(=O)O)CC[C@]3(C)C(=CC[C@@H]4[C@@]5(C)CC[C@H](O[C@@H]6O[C@H](C(=O)O)[C@@H](O)[C@H](O)[C@H]6O)C(C)(C)[C@@H]5CC[C@]43C)[C@@H]2C1 [Calenduloside E] | 0% | 0%
31 | CN1CC[C@]23c4ccccc4N[C@H]1[C@]21CCN(C)[C@H]3Nc2ccccc21 [Calycanthine] | 0% | 0%
32 | COc1ccc(-c2coc3cc(O[C@@H]4O[C@H](CO)[C@@H](O)[C@H](O)[C@H]4O)ccc3c2=O)cc1O [Calycosin‐7‐O‐β‐D‐glucoside] | 20% | 11%
33 | c1ccc2c(-c3nccs3)c[nH]c2c1 [Camalexin] | 50% | 27%
34 | CC1(C)S[C@@H]2[C@H](NC(=O)C(C(=O)[O-])c3ccccc3)C(=O)N2[C@H]1C(=O)[O-].[Na+].[Na+] (some centres unmarked) [Carbenicillin (disodium)] | 27% | 27%
35 | C=C1[C@@H]2CC[C@H]3[C@]4(C)C[C@H](O[C@@H]5O[C@H](CO)[C@@H](OS(=O)(=O)O)[C@H](OS(=O)(=O)O)[C@H]5OC(=O)CC(C)C)CC(C(=O)[O-])(C(=O)[O-])[C@H]4CC[C@]3(C2)[C@H]1O.[K+].[K+] [Carboxyatractyloside (dipotassium)] | 15% | 18%
36 | C=C1[C@@H]2CC[C@H]3[C@]4(C)C[C@H](O[C@H]5O[C@@H](CO)[C@H](OS(=O)(=O)[O-])[C@@H](OS(=O)(=O)[O-])[C@@H]5OC(=O)CC(C)C)C[C@@](C(=O)[O-])(C(=O)O)[C@H]4CC[C@]3(C2)[C@H]1O.[K+].[K+].[K+] [Carboxyatractyloside (tripotassium)] | 23% | 23%
